# Reference: PMC11289669, “BAR502/fibrate conjugates: synthesis, biological evaluation and metabolic profile” (Frontiers in Chemistry, 2024)
# Where “and” joins values, the source holds several entries; their conditions need not be identical. Equal values may be shown once. Entries after “also recorded” stand apart in the source; their conditions may differ.
# Tests used:
# FXR = target: T1, FXR (Homo sapiens, UniProt Q96RI1); assay: AlphaScreen coactivator (SRC-1) recruitment assay on FXR; type: biochemical; details: for FXR efficacy (% vs. CDCA): AlphaScreen SRC-1 recruitment, compounds at 10 μM, CDCA = 100%; for EC50: AlphaScreen coactivator recruitment, FXR with SRC-1
# T1 sequence (Q96RI1 262-486 limits assumed): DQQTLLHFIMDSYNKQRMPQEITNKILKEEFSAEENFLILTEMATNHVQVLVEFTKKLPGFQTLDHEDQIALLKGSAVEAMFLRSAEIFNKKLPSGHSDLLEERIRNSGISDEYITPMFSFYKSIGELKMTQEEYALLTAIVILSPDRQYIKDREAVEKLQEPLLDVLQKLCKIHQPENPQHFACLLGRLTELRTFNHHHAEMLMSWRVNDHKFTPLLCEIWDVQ
# Experimental: Compounds’ ability to mediate cofactor recruitment was evaluated by employing AlphaScreen GST Detection Kit (PerkinElmer). Particularly, FXR agonism was evaluated employing 10 nM FXR-LBD GST-fused (Thermo Scientific) and 30 nM of biotinylated SRC1 peptide ([…]) in the presence of 20 μg/mL donor and acceptor beads and in buffer containing 50 mM Tris-HCl (pH7.4), 20 mM KCl, 1 mM DTT, and 0.1% BSA. For PPARα assay, a buffer containing 50 mM MOPS, 50 mM NaF, 0.05 mM CHAPS, and 0.05% BSA (pH = 7.4) was used, and 20 nM PPARα LBD GST fused (Thermo Scientific) and 60 nM of biotinylated SRC1 peptide were employed. Both acceptor and donor beads were added to reach 20 μg/mL final concentration. Incubations were performed in a final volume of 25 μL employing 384 wells Optiplate and Alpha signal was measured with Envision 2,105 (Perkin Elmer) multimode plate reader. For efficacy, compounds were tested at 10 μM for FXR and 50 μM for PPARα.
# 3T3-L1 cells = assay: 3T3-L1 preadipocyte differentiation, adipogenic marker gene expression (qRT-PCR); type: cell-based, murine; details: differentiation medium (DIM), 7 days, 10 µM
# Experimental: The 3T3-L1 cells were cultured in Dulbecco’s modified Eagle’s medium (DMEM; Euroclone), supplemented with 10% fetal bovine serum, 1% l-glutamine, 100 U/mL penicillin, and 100 μg/mL streptomycin, at 37 °C. Preadipocytes of 3T3-L1 cells were plated at 1.7 × 10^6 cells in T75 flasks, and grown to confluence. Two days after reaching confluence (day 0), the cells were stimulated with differentiation medium (DIM), either alone (DMEM, 10% FBS, 500 μM 3-isobutyl-1-methylxanthine, 1 μM dexamethasone, […]), or in combination with BAR502 and clofibrate at the concentration of 5 µM or with compound 1 (10 µM). On day 3, the DIM was replaced by insulin medium (DMEM, 10% fetal bovine serum, […]) alone or with the compounds. On day 7 cells were recovered.
# Total mRNA extraction from U937 and 3T3.L1 was performed using Tri-Reagent (Zymo Research) and Direct-zol™ RNA MiniPrep w/Zymo-Spin™ IIC Columns (Zymo Research, Irvine, CA). […] The relative mRNA expression was calculated accordingly to the ΔCt method. […]
# [1] = Stability in cryopreserved pooled human hepatocytes; type: in vitro ADME; details: cryopreserved pooled human hepatocytes (HEP10), read-out: t1/2 in cryopreserved hepatocytes
# Experimental: Cryopreserved HEP10 Pooled Human Hepatocytes were thawed in 37°C water bath for 2 min and then transferred into CHRM® Medium. After centrifugation at room temperature cells were resuspended in pre-warmed Incubation Medium and diluted to correct seeding density (5 × 10^5 cells/mL).
# [2] = In cell permeation and metabolism in HepG2 cells (LC-MSMS); type: in vitro ADME, human; details: 0–480 min
# Experimental: HepG2 cells were treated with compound 1, BAR502 or clofibrate. At different time points (0–480 min) culture mediums and cells pellets were collected, extracted by adding ice-cold acetonitrile and analyzed by LC-MSMS.
# [3] = Plasma profile / metabolite quantization in mice (LC-MS MRM); type: in vivo
Structure (SMILES),FXR efficacy (% vs. CDCA) (FXR),EC50 (FXR),"Expression of markers of adipocyte differentiation (Adiponectin, Pparγ, Cebp) (3T3-L1 cells)",half-life [1],Cell permeation (amount in cell pellets) compared to BAR502 [2],Hydrolysis to clofibric acid in cells compared with clofibrate [2],"Plasma level of oxidized metabolite BAR505 ([3]; mice treated with compound 1, 30 mg/kg)","Plasma clofibric acid released, compared with that from clofibrate ([3]; mice, 30 mg/kg)","Unmodified compound in plasma ([3]; mice, 30 mg/kg, 0-8 h)"
"CC[C@H]1[C@@H](O)[C@@H]2[C@H](CC[C@]3(C)[C@@H]([C@H](C)CCO)CC[C@@H]23)[C@@]2(C)CC[C@@H](O)C[C@@H]12 [BAR502, 6α-ethyl-3α,7α-dihydroxy-24-nor-5β-cholan-23-ol]",153.0 ± 3.1%,690 ± 150 nM,–,–,–,–,–,–,–
CC[C@@H]1C2C[C@H](O)CC[C@]2(C)C2CC[C@@]3(C)C(CC[C@@H]3[C@H](C)CCOC(=O)C(C)(C)Oc3ccc(Cl)cc3)C2[C@@H]1O (some centres unmarked) [Compound 1],79% and 79.0 ± 3.8%,3400 ± 1200 nM,reduction in the expression of all markers of adipocyte differentiation,2.02 h,higher cell permeation,hydrolyzed more slowly,highly abundant species,superimposable,not detected; also recorded: not found
